Experimental data published in patent US20050101595A1, “N-containing cycloalkyl-substituted amino-thiazole derivatives and pharmaceutical compositions for inhibiting cell proliferation and methods for their use” (PFIZER INC., priority 2003, published 2005).
pIC50, pKi: −log10 of the molar value. Counter-ions that a name gives are not always drawn. Like-named read-outs stand apart in the source and are kept apart here.

Tests used:
[1] = target: human CDK4 and genetically truncated (1-264) cyclin D3 (Homo sapiens, UniProt P11802); experiment: Inhibition of CDK4/Cyclin D Retinoblastoma Kinase Activity; assay type: biochemical; settings: for pKi: apparent Ki, CDK4/truncated cyclin D3, Rb fragment substrate, 25 μM ATP
Sequence of human CDK4 and genetically truncated (1-264) cyclin D3 (P11802 whole entry, the tested form may be a part): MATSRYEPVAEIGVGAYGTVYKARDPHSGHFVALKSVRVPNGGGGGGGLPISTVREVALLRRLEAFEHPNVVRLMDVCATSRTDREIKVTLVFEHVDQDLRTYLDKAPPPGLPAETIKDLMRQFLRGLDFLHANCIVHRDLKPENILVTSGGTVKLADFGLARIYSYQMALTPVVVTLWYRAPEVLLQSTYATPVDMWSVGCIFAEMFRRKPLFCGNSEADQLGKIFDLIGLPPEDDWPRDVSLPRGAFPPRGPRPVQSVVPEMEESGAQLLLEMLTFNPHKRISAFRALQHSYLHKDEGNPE
Sequence of human CDK4 and genetically truncated (1-264) cyclin D3 (P30281 1-264 partner): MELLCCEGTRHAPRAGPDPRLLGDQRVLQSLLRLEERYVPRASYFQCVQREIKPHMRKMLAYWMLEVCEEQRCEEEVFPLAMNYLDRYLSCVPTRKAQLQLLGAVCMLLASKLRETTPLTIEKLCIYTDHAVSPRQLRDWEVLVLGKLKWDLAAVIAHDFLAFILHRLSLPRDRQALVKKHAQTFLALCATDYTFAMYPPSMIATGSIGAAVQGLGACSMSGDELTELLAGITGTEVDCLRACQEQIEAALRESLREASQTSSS
Experimental: Cyclin-dependent kinase activity was measured by quantifying the enzyme-catalyzed, time-dependent incorporation of radioactive phosphate from [^32P]ATP or [^33P]ATP into a protein substrate. Unless noted otherwise, assays were performed in 96-well plates in a total volume of 50 μL, in the presence of 10 mM HEPES (N-[2-hydroxyethyl]piperazine-N′-[2-ethanesulfonic acid]) (pH 7.4), 10 mM MgCl2, 25 μM adenosine triphosphate (ATP), 1 mg/mL ovalbumin, 5 μg/mL leupeptin, 1 mM dithiothreitol, 10 mM β-glycerophosphate, 0.1 mM sodium vanadate, 1 mM sodium fluoride, 2.5 mM ethylene glycol-bis(β-aminoethyl ether)-N,N,N′N′-tetraacetic acid (EGTA), 2% (v/v) dimethylsulfoxide, and 0.03-0.4 μCi [^32/33P]ATP per reaction. Reactions were initiated with enzyme, incubated at 30° C., and terminated after 20 minutes by the addition of ethylenediaminetetraacetic acid (EDTA) to 250 mM. The phosphorylated substrate was then captured on a nitrocellulose or phosphocellulose membrane using a 96-well filtration manifold, and unincorporated radioactivity was removed by repeated washing with 0.85% phosphoric acid. Radioactivity was quantified by exposing the dried membranes to a phosphorimager.
Inhibition was measured relative to control wells that contained all reaction components including 2% (v/v) DMSO but no compound, after subtraction of background radioactivity measured in the absence of enzyme. Apparent Ki values of discrete compounds were measured by assaying enzyme activity in the presence of different inhibitor compound concentrations and subtracting the background radioactivity measured in the absence of enzyme. The kinetic parameters (kcat, Km for ATP) were measured for each enzyme under the usual assay conditions by determining the dependence of initial rates on ATP concentration. Inhibition data were fit to an equation for competitive inhibition using Kaleidagraph (Synergy Software), or were fit to an equation for competitive tight-binding inhibition using the software KineTic (BioKin, Ltd.).
Inhibition of CDK4/Cyclin D Retinoblastoma Kinase Activity:
A complex of human CDK4 and genetically truncated (1-264) cyclin D3 was purified using traditional biochemical chromatographic techniques from insect cells that had been co-infected with the corresponding baculovirus expression vectors (see e.g., Meijer and Kim, “Chemical Inhibitors of Cyclin-Dependent Kinases,” Methods in Enzymol,. vol. 283 (1997), pp. 113-128.). The enzyme complex (5 nM) was assayed with 0.3-0.5 μg of purified recombinant retinoblastoma protein fragment (Rb) as a substrate. The engineered Rb fragment (residues 386-928 of the native retinoblastoma protein; 62.3 kDa) contains the majority of the phosphorylation sites found in the native 106-kDa protein, as well as a tag of six histidine residues for ease of purification. Phosphorylated Rb substrate was captured by microfiltration on a nitrocellulose membrane and quantified using a phosphorimager as described above. For measurement of tight-binding inhibitors, the assay duration was extended to 60 minutes, during which the time-dependence of product formation was linear and initial rate conditions were met.

CDK2/Cyclin A = CDK2/Cyclin A (Homo sapiens, UniProt P24941); experiment: Inhibition of CDK2/Cyclin A Retinoblastoma Kinase Activity; assay type: biochemical; settings: for pKi: apparent Ki, CDK2/proteolyzed cyclin A, Rb fragment substrate, 25 μM ATP
Procedure, shortened: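 Baculovirus-expressed CDK2 complexed with proteolyzed cyclin A (10 or 19 nM), Rb fragment substrate, 25 μM [32P/33P]ATP, HEPES pH 7.4, 30 °C for 60 or 75 min under initial-rate conditions. Filter capture and phosphorimager readout; apparent Ki fitted to competitive or tight-binding competitive inhibition.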

HCT-116 cell line = experiment: Inhibition of cell growth, tetrazolium salt (MTT) assay; assay type: cell-based; settings: for pIC50: Homo sapiens, HCT-116, 120 h, MTT, three to five days, read-out: HCT-116 IC50; for HCT-116 % Inhibition at 0.25 μM: 0.25 μM compound
Procedure, shortened: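 Growth inhibition by MTT reduction at 540 nm (0.2 mg/mL, 4 h at 37° C, formazan dissolved in DMSO), normalized to cells given only 0.5% v/v DMSO. HCT-116 cultures in McCoy's 5A were dosed 4 h post-plating and kept three to five days at 37° C, 5% CO2.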

[2] = 0.1 μM compound, HCT-116, Table 3

## CC1CC(NCCS(=O)(=O)N2CCC(Nc3nc(N)c(C(=O)c4c(F)cccc4F)s3)CC2)CC(C)(C)C1 (centres unmarked) [Example K44]
[1]
  pKi: 8.60
CDK2/Cyclin A
  pKi: 9.31
HCT-116 cell line; first HCT-116 column (c4)
  pIC50: 7.00
HCT-116 cell line; second HCT-116 column (c5)
  pIC50: 6.44

## Nc1nc(NC2CCN(S(=O)(=O)c3ccc(CNC(=O)c4ccc(Cl)cc4)s3)CC2)sc1C(=O)c1c(F)cccc1F [Example P66]
[1]; 0.03 μM compound, Table 3
  CDK4 % Inhibition at 0.03 μM: 57%
CDK2/Cyclin A; 0.03 μM compound, Table 3
  CDK2 % Inhibition at 0.03 μM: 55%
HCT-116 cell line; [2]
  HCT-116 % Inhibition at 0.1 μM: 12%
HCT-116 cell line; HCT-116, Table 3
  HCT-116 % Inhibition at 0.25 μM: 34%

## Nc1nc(NC2CCN(C(=O)c3ccccc3I)CC2)sc1C(=O)c1c(F)cccc1F [Example Q52]
[1]; 0.03 μM compound, Table 4
  CDK4 % Inhibition at 0.03 μM: 53%
CDK2/Cyclin A; 0.03 μM compound, Table 4
  CDK2 % Inhibition at 0.03 μM: 24%
HCT-116 cell line; 0.1 μM compound, HCT-116, Table 4
  HCT-116 % Inhibition at 0.1 μM: 0%
HCT-116 cell line; HCT-116, Table 4
  HCT-116 % Inhibition at 0.25 μM: 24%

## Nc1nc(NC2CCN(S(=O)(=O)CCc3ccccn3)CC2)sc1C(=O)c1c(F)cccc1F [Example F28, 1-{4-Amino-2-[1-(2-pyridin-2-yl-ethanesulfonyl)-piperidin-4-ylamino]-thiazol-5-yl}-1-(2,6-difluoro-phenyl)-methanone]
[1]
  pKi: 8.09
CDK2/Cyclin A
  pKi: 8.44
HCT-116 cell line; first HCT-116 column (c4)
  pIC50: 6.19
HCT-116 cell line; second HCT-116 column (c5)
  pIC50: 5.89

## COc1ccc(CCC(=O)N2CCC(Nc3nc(N)c(C(=O)c4c(F)cccc4F)s3)CC2)cc1 [Example R176]
[1]; at 0.03 μM
  CDK4 % Inhibition at 0.03 μM: 4%
CDK2/Cyclin A; at 0.03 μM
  CDK2 % Inhibition at 0.03 μM: 2%
HCT-116 cell line; HCT-116 cells, at 0.1 μM
  HCT-116 % Inhibition at 0.1 μM: 1%
HCT-116 cell line; HCT-116 cells
  HCT-116 5 Inhibition at 0.25 μM: 43

## CN1CCCC1c1ccc(S(=O)(=O)N2CCC(Nc3nc(N)c(C(=O)c4c(F)cccc4F)s3)CC2)cc1 (centres unmarked) [Example F24, 1-[4-Amino-2-{1-[4-(1-methyl-pyrrolidin-2-y)-benzenesulfonyl]-piperidin-4-ylamino}-thiazol-5-yl)-1-(2,6-difluoro-phenyl)-methanone Dihydrochloride]
[1]
  pKi: 9.47
CDK2/Cyclin A
  pKi: > 9.00
HCT-116 cell line; first HCT-116 column (c4)
  pIC50: 6.23
HCT-116 cell line; second HCT-116 column (c5)
  pIC50: 5.80

## Nc1nc(NC2CCN(S(=O)(=O)c3cnc(OCCN4CCOCC4)nc3)CC2)sc1C(=O)c1c(F)cccc1F [Example H22, (4-Amino-2-{1-[2-(2-morpholin4-yl-ethoxy)-pyrimidine-5-sulfonyl]-piperidin-4-ylamino}-thiazol-5-yl)-(2,6-difluoro-phenyl)-methanone Trifluoroacetic Acid Salt]
[1]
  pKi: 8.96
CDK2/Cyclin A
  pKi: 8.92
HCT-116 cell line; first HCT-116 column (c4)
  pIC50: 6.92
HCT-116 cell line; second HCT-116 column (c5)
  pIC50: 6.52

## COc1ccccc1C(=O)N1CCC(Nc2nc(N)c(C(=O)c3c(F)cccc3F)s2)CC1 [Example R114]
[1]; at 0.03 μM
  CDK4 % Inhibition at 0.03 μM: 65%
CDK2/Cyclin A; at 0.03 μM
  CDK2 % Inhibition at 0.03 μM: 60%
HCT-116 cell line; HCT-116 cells, at 0.1 μM
  HCT-116 % Inhibition at 0.1 μM: 0%
HCT-116 cell line; HCT-116 cells
  HCT-116 5 Inhibition at 0.25 μM: 42

## Nc1nc(NC2CCN(S(=O)(=O)c3ccc(Cl)c4nonc34)CC2)sc1C(=O)c1c(F)cccc1F [Example P75]
[1]; 0.03 μM compound, Table 3
  CDK4 % Inhibition at 0.03 μM: 79%
CDK2/Cyclin A; 0.03 μM compound, Table 3
  CDK2 % Inhibition at 0.03 μM: 60%
HCT-116 cell line; [2]
  HCT-116 % Inhibition at 0.1 μM: 27%
HCT-116 cell line; HCT-116, Table 3
  HCT-116 % Inhibition at 0.25 μM: 43%

## N#Cc1ccc(S(=O)(=O)N2CCC(Nc3nc(N)c(C(=O)c4c(F)cccc4F)s3)CC2)cc1 [Example P47]
[1]; 0.03 μM compound, Table 3
  CDK4 % Inhibition at 0.03 μM: 82%
CDK2/Cyclin A; 0.03 μM compound, Table 3
  CDK2 % Inhibition at 0.03 μM: 81%
HCT-116 cell line; [2]
  HCT-116 % Inhibition at 0.1 μM: 0%
HCT-116 cell line; HCT-116, Table 3
  HCT-116 % Inhibition at 0.25 μM: 26%

## Cc1ccc(C(=O)N2CCC(Nc3nc(N)c(C(=O)c4c(F)cccc4F)s3)CC2)cc1C [Example D15, {4-Amino-2-[1-(3,4-dimethyl-benzoyl)-piperidin-4-ylamino]-thiazol-5-yl}-(2,6-difluoro-phenyl)-methanone]
[1]
  pKi: 7.57
CDK2/Cyclin A
  pKi: 6.77
HCT-116 cell line; first HCT-116 column (c4)
  pIC50: 7.30
HCT-116 cell line; second HCT-116 column (c5)
  pIC50: 6.77
